Starred links: 1 amine or outer side, 2 acyl side, 3 side chain; linkers in the order of their positions; H or OH if unused. Positions of bridges follow the written chain, without caps; N, C: chain ends. Non-standard residues stand in square brackets, D forms with d. Residues, ends and D or L forms follow the SMILES beside them. No end group written: not given here. X1 = O=C(CC1(S[*:2])CCCCC1)[*:1]; Orn = NCCC[C@H](N)C(=O)O

The target of data set [1] is T1, OTR (Homo sapiens, UniProt P30559).
T1 sequence (P30559 1-389): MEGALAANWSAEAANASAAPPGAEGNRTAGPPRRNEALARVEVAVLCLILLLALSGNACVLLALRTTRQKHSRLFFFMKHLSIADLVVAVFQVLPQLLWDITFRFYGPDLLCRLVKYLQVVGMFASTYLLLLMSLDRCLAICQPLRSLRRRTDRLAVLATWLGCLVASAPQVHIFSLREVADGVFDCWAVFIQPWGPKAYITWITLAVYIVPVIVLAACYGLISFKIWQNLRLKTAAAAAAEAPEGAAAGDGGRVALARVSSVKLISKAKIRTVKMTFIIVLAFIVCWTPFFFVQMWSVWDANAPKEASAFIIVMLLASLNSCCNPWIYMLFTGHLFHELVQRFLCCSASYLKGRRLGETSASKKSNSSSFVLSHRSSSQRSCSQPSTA
Nature of the data set: Intracellular calcium levels, undifferentiated osteoblastic cells. Also on record: Undifferentiated or differentiated human trabecular bone cells with osteogenic capacity in primary culture express oxytocin receptors (OTRs); endogenous in cells; host or cells: primary human osteoblastic cells from rib trabecular bone explants (undifferentiated, or differentiated in mineralizing medium). The class given is cell-based. The settings on record: 10 nM OT. As to the method: (§1) FIG. 3A, FIG. 3B and FIG. 3C Intracellular calcium transients after 10 nM oxytocin treatment. (FIG. 3A.) Undifferentiated osteoblastic cells; (FIG. 3B.) differentiated osteoblastic cells; and (FIG. 3C.) Saos-2 cells. Cells were incubated at 37C and treated in the following manner; 100 nM OTA for 1 min, […], wash cells 3 times to remove bound antagonist, 10 min recovery, and then 10 nM OT treatment.
(§2) Cell Culture Conditions: Human osteosarcoma cells (Saos-2) cells were obtained from the ATCC (Rockville, Md.). Human osteoblasts (Cheng et al., 1994; Civitelli et al., 1993) were prepared from explants of cultured rib trabecular. These cells were grown in mineralizing media consisting of DMEM supplemented with 10% fetal bovine serum (FBS), 2% penicillin/streptomycin, dexamethasone (100 nM), ascorbate (50 μg/ml, and β3-glycerophosphate (10 μg/ml) in a humidified tissue culture incubator at 37C under an atmosphere of 5% CO2 and 95% air. These conditions accelerate the osteoblastic modulation of undifferentiated human trabecular bone cells and the production of osteogenic mineralizeable collagen matrix (Cheng et al., Civitelli et al., 1993). To retain undifferentiated osteoblastic phenotype, cells were cultured in the absence of dexamethasone, ascorbate, and β-glycerophosphate. […]
In general terms: Calcium assays in cells follow changes in intracellular calcium, usually with a dye or a luminescent sensor.

For data set [2], the target named is T1, OTR. Nature of the data set: Intracellular calcium levels, Saos-2 cells. Type of data set: cell-based. The conditions noted are these: 10 nM OT. As for the experimental part: as §1, §2
Data set [3] concerns Undifferentiated and differentiated osteoblastic cells. Briefly: PGE2 levels in media of OT-stimulated cells (EIA). The settings on record: 100 nM OT, over nontreated controls. The class given is cell-based, human. As to the method:
FIG. 4A and FIG. 4B PGE2 levels in media of cells stimulated with 100 nM OT. (FIG. 4A.) Undifferentiated osteoblastic cells and (FIG. 4B.) differentiated osteoblastic cells. Each point is the mean +/- SE of triplicates. * indicates P<0.05 compared to matched basal control.
Prostaglandin E2 (PGE2) levels. PGE2 levels in media were measured using a PGE2 enzyme immunoassay (EIA) system from Amersham Life Sciences (Arlington Heights, Ill.) as previously described (Copland, et al., 1999). The sensitivity of the assay was 2.5 pg/ml with an intraassay coefficient of variation of 6.3% and the interassay coefficient of variation of 6.9%.
Undifferentiated and differentiated osteoblastic cells were tested to determine whether OT could stimulate PGE2 synthesis. Undifferentiated osteoblastic cells that were allowed to come to confluence and maintained for 2 weeks in either 10% FBS/DMEM or in mineralizing medium (differentiated osteoblast), synthesized and released PGE2 into the media in response to 100 nM OT (FIG. 4A and FIG. 4B, respectively).

The target of data set [4] is T1, OTR. Briefly: Intracellular calcium levels, differentiated osteoblastic cells. The class given is cell-based. Also on record: Undifferentiated or differentiated human trabecular bone cells with osteogenic capacity in primary culture express oxytocin receptors (OTRs); endogenous in cells; host or cells: primary human osteoblastic cells from rib trabecular bone explants (undifferentiated, or differentiated in mineralizing medium). The conditions noted are these: 10 nM OT. As for the experimental part: as §1, §2

Data set [5] concerns cortical bone. The conditions noted are these: injections with mild exercise; old female rats; cited from earlier work.
The test system of a further data set is bone; uterus. The conditions noted are these: rats; compared with estradiol; cited from earlier work.
For another data set, the system named is rat osteogenic cells. The settings on record: in vitro; cited from earlier work.
Data set [6] concerns bone formation. The settings on record: in vivo, high dose; cited from earlier work.
In data set [7] the target is T1, OTR. Briefly: Whole cell OTR ligand binding, Scatchard analysis, Saos-2 cells. Also on record: Undifferentiated or differentiated human trabecular bone cells with osteogenic capacity in primary culture express oxytocin receptors (OTRs); endogenous in cells; host or cells: primary human osteoblastic cells from rib trabecular bone explants (undifferentiated, or differentiated in mineralizing medium). As to the method:
(§3) Cell Culture Conditions: Human osteosarcoma cells (Saos-2) cells were obtained from the ATCC (Rockville, Md.). Human osteoblasts (Cheng et al., 1994; Civitelli et al., 1993) were prepared from explants of cultured rib trabecular. These cells were grown in mineralizing media consisting of DMEM supplemented with 10% fetal bovine serum (FBS), 2% penicillin/streptomycin, dexamethasone (100 nM), ascorbate (50 μg/ml, and β3-glycerophosphate (10 μg/ml) in a humidified tissue culture incubator at 37C under an atmosphere of 5% CO2 and 95% air. These conditions accelerate the osteoblastic modulation of undifferentiated human trabecular bone cells and the production of osteogenic mineralizeable collagen matrix (Cheng et al., Civitelli et al., 1993). To retain undifferentiated osteoblastic phenotype, cells were cultured in the absence of dexamethasone, ascorbate, and β-glycerophosphate. Osteoblast phenotype was verified by alkaline phosphatase activity and mineralization of the extracellular matrix using von Kossa staining. The cells were used on the first passage following initial plating.
(§4) Determination of OTR ligand binding: OTA was monoiodinated as previously described (Hinko and Soloff, 1992). […] The concentration of cellular DNA was determined in parallel, using the Hoechst dye H 33258 and a Hoefer DyNA Quant fluorometer according to the manufacturer's instructions.

Data set [8] addresses T1, OTR. Briefly: Whole cell OTR ligand binding, Scatchard analysis, undifferentiated osteoblastic cells. Also on record: Undifferentiated or differentiated human trabecular bone cells with osteogenic capacity in primary culture express oxytocin receptors (OTRs); endogenous in cells; host or cells: primary human osteoblastic cells from rib trabecular bone explants (undifferentiated, or differentiated in mineralizing medium). The conditions noted are these: +/- SE. As to the method: as §3, §4

Data set [9] deals with T1, OTR. Briefly: Whole cell OTR ligand binding, Scatchard analysis, differentiated osteoblastic cells. Further details: Undifferentiated or differentiated human trabecular bone cells with osteogenic capacity in primary culture express oxytocin receptors (OTRs); endogenous in cells; host or cells: primary human osteoblastic cells from rib trabecular bone explants (undifferentiated, or differentiated in mineralizing medium). As for the experimental part: as §3, §4

Data set [10] relates to bone formation. The settings on record: systemic administration; cited from earlier work.
Data set [11] deals with bone formation. The conditions noted are these: in vivo; cited from earlier work.
Another data set relates to rat osteoblastic cell. The settings on record: combined with insulin-like growth factor-1; cited from earlier work.
The subject of data set [12] is cortical bone. The conditions noted are these: ovariectomized rats; cited from earlier work.

For `CC[C@H](C)[C@@H]1NC(=O)[C@H](Cc2ccc(O)cc2)NC(=O)[C@@H](N)CSSC[C@@H](C(=O)N2CCC[C@H]2C(=O)N[C@@H](CC(C)C)C(=O)NCC(N)=O)NC(=O)[C@H](CC(N)=O)NC(=O)[C@H](CCC(N)=O)NC1=O` [OT, oxytocin], the “rise in [Ca2+]i” value at OTR [1], on OTR [2] and at OTR [4] was “responded within seconds to OT treatment with a rise in [Ca^2+ ]i” each time. The “increase in PGE2 synthesis” value is listed as 2 fold in [3] (15 and 30 minutes); 4-6 fold in data set [3] (by 1 h of OT stimulation).

With “Growth Hormone: growth hormone injections”, in the data set with cortical bone [5], the “formation and strength of cortical bone” value was “increase the formation and strength of cortical bone”.

Turning to `Oc1ccc2c(c1)CC[C@H](c1ccccc1)[C@@H]2c1ccc(OCCN2CCCC2)cc1` [CP-336,156], the uterine-stimulating effects entry in the data set with bone; uterus was “without the uterine-stimulating effects associated with estradiol”.

Take “substance P: a neuropeptide with wide distribution in central and peripheral nervous system (RPKPQQFFGLM; ends and bridges not checked; UniProt P20366 58-68, looked up)”: the cell proliferation entry in the data set with rat osteogenic cells was “increased cell proliferation in a dose dependent fashion”.

As for `C=C1/C(=C\C=C2/CCC[C@]3(C)[C@@H]([C@H](C)CCCC(C)(C)O)CC[C@@H]23)C[C@@H](O)C[C@@H]1O` [1,25 dihydroxyvitamin D3], the bone formation entry in the data set on bone formation [6] is recorded as “stimulates bone formation”.

For the molecule `CC[C@H](C)[C@@H]1NC(=O)[C@H](Cc2ccc(OC)cc2)NC(=O)CC2(CCCCC2)SSC[C@@H](C(=O)N2CCC[C@H]2C(=O)N[C@@H](CCCN)C(=O)N[C@@H](Cc2ccc(O)cc2)C(N)=O)NC(=O)[C@H](CC(N)=O)NC(=O)[C@H]([C@@H](C)O)NC1=O` [{^125 I]OTA] (Y(Me)ITNCP[Orn]Y-NH2; linker N-5 via X1), the figures for the Bmax on OTR [7], at OTR [8] and on OTR [9] were 24.6+/-3.2 fmol/10 μg DNA, 5.7+/-0.8 fmol/10 μg DNA and 12.3+/-1.4 fmol/10 μg DNA, respectively. The values for the Kd at OTR [7] (read-out: apparent Kd), on OTR [8] (read-out: apparent Kd) and on OTR [9] (read-out: apparent Kd) were 0.15 ± 0.028 nM, 0.132 ± 0.027 nM and 0.175 ± 0.034 nM, respectively.

Regarding “IGF-1/IGF BP-3: insulin-like growth factor-1 combined with insulin-like growth factor binding protein-3”, the “effect of IGF-1 on bone formation when combined with IGF BP-3” value in the data set on bone formation [10] is “potentiated”.

B1: Osteogenic Protein-1: osteogenic protein-1 (protein, UniProt P18075 293-431, looked up)
Bone morphogenetic protein 7: STGSKQRSQNRSKTPKNQEALRMANVAENSSSDQRQACKKHELYVSFRDLGWQDWIIAPEGYAAYYCEGECAFPLNSYMNATNHAIVQTLVHFINPETVPKPCCAPTQLNAISVLYFDDSSNVILKKYRNMVVRACGCH
Take B1: the new bone formation result with bone formation [11] is listed as “induces new bone formation”. Also, in the data set on rat osteoblastic cell, the “stimulation of rat osteoblastic cell differentiation and proliferation” value is “synergistic with insulin-like growth factor-1”.

B2: Parathyroid Hormone: parathyroid hormone (protein, UniProt P01270 32-115, looked up)
Parathyroid hormone: SVSEIQLMHNLGKHLNSMERVEWLRKKLQDVHNFVALGAPLAPRDAGSQRPRKKEDNVLVESHEKSLGEADKADVNVLTKAKSQ
modifications: Parathyroid hormone
For B2, the “femoral length and strength in cortical bone” value with cortical bone [12] is “dose dependent increase”.

The record behind these values is patent US6333313A, “Clinical use of oxytocin alone or in combination to treat bone disorders” (Board of Regents, The University of Texas System, priority 1999, dated 2001).
